This is an account of results in patent US9758529B2, “Fused dihydro-4H-pyrazolo[5,1-C][1,4]oxazinyl compounds and analogs for treating CNS disorders” (Sunovion Pharmaceuticals Inc., priority 2015, dated 2017).

The structures appear in SMILES notation.

In this assay the test system is mice. As to the kind of experiment: Neuropharmacological Assay (SmartCube). The note with it: i.p. 15 min before behavioral test; 3 doses, most efficacious dose(s) presented. Format: in vivo.
On to `c1ccc2c3n(nc2c1)CCOC3CN1CC1` (stereo not shown) [Compound 63, 1-(aziridin-1-ylmethyl)-3,4-dihydro-1H-[1,4]oxazino[4,3-b]indazole], for which the “AD: ADHD (probability of class match)” value is recorded as “+ (LOQ≦ + <5%)”, the “AG: analgesic (probability of class match)” value (“AG: analgesic” for short) was “+++ (25%≦ +++ <50%)”, the “AX: anxiolytic (probability of class match)” value (from here on “AX: anxiolytic”) is “+ (LOQ≦ + <5%)” and the “CE: cognitive enhancer (probability of class match)” value (shortened to “CE: cognitive enhancer”) is “+ (LOQ≦ + <5%)”. Also, the “DP: anti-depressant (probability of class match)” value (“DP: anti-depressant” below) is “++ (5%≦ ++ <25%)”, the “HA: hallucinogen (probability of class match)” value (shortened to “HA: hallucinogen”) is on record as “+ (LOQ≦ + <5%)”, the “MS: mood stabilizer (probability of class match)” value (from here on “MS: mood stabilizer”) is “+ (LOQ≦ + <5%)” and the “PS: anti-psychotic (probability of class match)” value (“PS: anti-psychotic” below) is “+ (LOQ≦ + <5%)”. In addition, the “SD: sedative hypnotic (probability of class match)” value (from here on “SD: sedative hypnotic”) is on record as “++ (5%≦ ++ <25%)”, the “UN: uncharacterized CNS activity (probability of class match)” value (from here on “UN: uncharacterized CNS activity”) is “+ (LOQ≦ + <5%)” and the “XG: anxiogenic (probability of class match)” value (“XG: anxiogenic” for short) is “+ (LOQ≦ + <5%)”.
`c1ccc2c3n(nc2c1)CCOC3[C@@H]1CCN1` (stereo partly drawn) [Compound 64, (2S)-2-(3,4-dihydro-1H-[1,4]oxazino[4,3-b]indazol-1-yl)azetidin-1-ium chloride]: the “AD: ADHD (probability of class match)” value was “++++ (50%≦ ++++)”, the “AG: analgesic” value is “++ (5%≦ ++ <25%)”, the “AX: anxiolytic” value was “++ (5%≦ ++ <25%)” and the “CE: cognitive enhancer” value is reported as “+ (LOQ≦ + <5%)”. Also, the “DP: anti-depressant” value was “++ (5%≦ ++ <25%)”, the “HA: hallucinogen” value was “+ (LOQ≦ + <5%)”, the “MS: mood stabilizer” value was “+ (LOQ≦ + <5%)” and the “PS: anti-psychotic” value is “+ (LOQ≦ + <5%)”. Also, the “SD: sedative hypnotic” value is listed as “+ (LOQ≦ + <5%)”, the “UN: uncharacterized CNS activity” value is “+++ (25%≦ +++ <50%)” and the “XG: anxiogenic” value was “+ (LOQ≦ + <5%)”.
For the compound `CN1CC[C@H]1C1OCCn2nc3ccccc3c21` (stereo partly drawn) [Compound 65, ((2S)-2-(3,4-dihydro-1H-[1,4]oxazino[4,3-b]indazol-1-yl)-1-methylazetidin-1-ium chloride], the “AD: ADHD (probability of class match)” value is recorded as “+ (LOQ≦ + <5%)”, the “AG: analgesic” value was “+++ (25%≦ +++ <50%)”, the “AX: anxiolytic” value is on record as “++ (5%≦ ++ <25%)” and the “CE: cognitive enhancer” value is given as “++ (5%≦ ++ <25%)”. Further, the “DP: anti-depressant” value is listed as “++ (5%≦ ++ <25%)”, the “HA: hallucinogen” value is reported as “+ (LOQ≦ + <5%)”, the “MS: mood stabilizer” value is recorded as “+ (LOQ≦ + <5%)” and the “PS: anti-psychotic” value is “+ (LOQ≦ + <5%)”. The “SD: sedative hypnotic” value is listed as “++ (5%≦ ++ <25%)”, the “UN: uncharacterized CNS activity” value is “+ (LOQ≦ + <5%)” and the “XG: anxiogenic” value is listed as “++ (5%≦ ++ <25%)”.
Consider `c1ccc2c3n(nc2c1)CCOC3C1CNC1` (stereo not shown) [Compound 66, 3-(3,4-dihydro-1H-[1,4]oxazino[4,3-b]indazol-1-yl)azetidin-1-ium chloride], for which the “AD: ADHD (probability of class match)” value is listed as “+ (LOQ≦ + <5%)”, the “AG: analgesic” value is reported as “++ (5%≦ ++ <25%)”, the “AX: anxiolytic” value was “++ (5%≦ ++ <25%)” and the “CE: cognitive enhancer” value is reported as “+ (LOQ≦ + <5%)”. Besides, the “DP: anti-depressant” value is reported as “++ (5%≦ ++ <25%)”, the “HA: hallucinogen” value is on record as “+ (LOQ≦ + <5%)”, the “MS: mood stabilizer” value was “+ (LOQ≦ + <5%)” and the “PS: anti-psychotic” value is “+ (LOQ≦ + <5%)”. The “SD: sedative hypnotic” value is listed as “+ (LOQ≦ + <5%)”, the “UN: uncharacterized CNS activity” value is on record as “+ (LOQ≦ + <5%)” and the “XG: anxiogenic” value is on record as “+ (LOQ≦ + <5%)”.
`CN1CC(C2OCCn3nc4ccccc4c32)C1.Cl` (stereo not shown) [Compound 67, 3-(3,4-dihydro-1H-[1,4]oxazino[4,3-b]indazol-1-yl)-1-methylazetidin-1-ium chloride]: the “AD: ADHD (probability of class match)” value is recorded as “+ (LOQ≦ + <5%)”, the “AG: analgesic” value is recorded as “+ (LOQ≦ + <5%)”, the “AX: anxiolytic” value is on record as “++ (5%≦ ++ <25%)” and the “CE: cognitive enhancer” value was “+ (LOQ≦ + <5%)”. Also, the “DP: anti-depressant” value is on record as “++ (5%≦ ++ <25%)”, the “HA: hallucinogen” value was “+ (LOQ≦ + <5%)”, the “MS: mood stabilizer” value was “+ (LOQ≦ + <5%)” and the “PS: anti-psychotic” value was “+ (LOQ≦ + <5%)”. For the same compound, the “SD: sedative hypnotic” value was “+ (LOQ≦ + <5%)”, the “UN: uncharacterized CNS activity” value is given as “+ (LOQ≦ + <5%)” and the “XG: anxiogenic” value is “+ (LOQ≦ + <5%)”.
As for `CNC[C@@H]1OCCn2nc3ccsc3c21` [Compound 68, (S)-1-(6,7-dihydro-9H-thieno[3′,2′:3,4]pyrazolo[5,1-c][1,4]oxazin-9-yl)-N-methylmethanamine], the “AD: ADHD (probability of class match)” value is reported as “++ (5%≦ ++ <25%)”, the “AG: analgesic” value is given as “++ (5%≦ ++ <25%)”, the “AX: anxiolytic” value is on record as “++ (5%≦ ++ <25%)” and the “CE: cognitive enhancer” value is “+ (LOQ≦ + <5%)”. In addition, the “DP: anti-depressant” value was “++++ (50%≦ ++++)”, the “HA: hallucinogen” value is recorded as “++++ (50%≦ ++++)”, the “MS: mood stabilizer” value is given as “+ (LOQ≦ + <5%)” and the “PS: anti-psychotic” value is given as “+ (LOQ≦ + <5%)”. Besides, the “SD: sedative hypnotic” value is recorded as “++ (5%≦ ++ <25%)”, the “UN: uncharacterized CNS activity” value is reported as “++ (5%≦ ++ <25%)” and the “XG: anxiogenic” value was “+ (LOQ≦ + <5%)”.
For `CNC[C@H]1OCCn2nc3ccsc3c21` [Compound 69, (R)-1-(6,7-dihydro-9H-thieno[3′,2′:3,4]pyrazolo[5,1-c][1,4]oxazin-9-yl)-N-methylmethanamine], the “AD: ADHD (probability of class match)” value is given as “+ (LOQ≦ + <5%)”, the “AG: analgesic” value is on record as “+ (LOQ≦ + <5%)”, the “AX: anxiolytic” value was “++ (5%≦ ++ <25%)” and the “CE: cognitive enhancer” value is recorded as “+ (LOQ≦ + <5%)”. The “DP: anti-depressant” value is on record as “++ (5%≦ ++ <25%)”, the “HA: hallucinogen” value is “+ (LOQ≦ + <5%)”, the “MS: mood stabilizer” value is recorded as “+ (LOQ≦ + <5%)” and the “PS: anti-psychotic” value is listed as “+ (LOQ≦ + <5%)”. Besides, the “SD: sedative hypnotic” value is “+ (LOQ≦ + <5%)”, the “UN: uncharacterized CNS activity” value is reported as “++ (5%≦ ++ <25%)” and the “XG: anxiogenic” value is recorded as “+ (LOQ≦ + <5%)”.
For the compound `CNCC1OCCn2nc3ccccc3c21` (stereo not shown) [Compound I-4, (3,4-dihydro-1H-[1,4]oxazino[4,3-b]indazol-1-yl)-N-methylmethanamine], the “AD: ADHD (probability of class match)” value is on record as “++ (5%≦ ++ <25%)”, the “AG: analgesic” value was “+ (LOQ≦ + <5%)”, the “AX: anxiolytic” value is “+++ (25%≦ +++ <50%)” and the “CE: cognitive enhancer” value is given as “+ (LOQ≦ + <5%)”. In addition, the “DP: anti-depressant” value is on record as “++++ (50%≦ ++++)”, the “HA: hallucinogen” value is given as “++ (5%≦ ++ <25%)”, the “MS: mood stabilizer” value was “+ (LOQ≦ + <5%)” and the “PS: anti-psychotic” value is “+ (LOQ≦ + <5%)”. Further, the “SD: sedative hypnotic” value is “++ (5%≦ ++ <25%)”, the “UN: uncharacterized CNS activity” value is listed as “+ (LOQ≦ + <5%)” and the “XG: anxiogenic” value is reported as “+ (LOQ≦ + <5%)”.
